# Experiments:
# [1] = system: HPMEC; experiment: NADPH-dependent O2.- production by homogenates of TNFα-stimulated HPMEC, lucigenin-chemiluminescence; format: cell-based, human; conditions: HPMEC stimulated with TNFα 100 U/ml 45 min, homogenates 0.1 mg/well, NADPH 100 μM
# Procedure: (§1) A) Differentiate human neutrophils (HL-60 cells, 5×10^4 cells/well) were stimulated with PMA (100 ng/ml) for 5 min in the presence or absence of LMH036 at the dose indicated. O2.^− production was measured by lucigenin-chemiluminescence. B) HPMEC were stimulated with TNFα (100 U/ml) for 45 min. Cells were immediately frozen in liquid nitrogen and homogenised. Cell homogenates (0.1 mg/well) were pre-incubated with LMH036 at the indicated dose for 5 min and measured for the O2.^− production in the presence of NADPH (100 μM) by lucigenin-chemiluminescence.
# (§2) O2^− production by different cell types was measured using lucigenin (5 μM)-chemiluminescence. A microplate luminometer (LumiStar, BMG) was used, which allows the examination of 96 samples at the same time with kinetic reading facilities. […] Dark-adapted lucigenin (5 μM) was added into the well through an auto-dispenser located in the dark chamber just before reading. The light emission was recorded over a 60 minute period and expressed as arbitrary MLU measured by the illuminometer. Each experiment was performed in triplicate and the mean of 3 blank readings was subtracted from each corrected value for each reading. […]
# O2^− production was also studied using total cell homogenate (for the endothelial cells and the fibroblasts). […] Soluble protein concentration was determined using a kit from Bio-Rad Laboratories Ltd. (Hertfordshire, U.K.). […]
# [2] = system: Differentiate human neutrophils (HL-60 cells); experiment: PMA-stimulated O2.- production by differentiated human neutrophils, lucigenin-chemiluminescence; format: cell-based; conditions: HL-60 neutrophils, PMA 100 ng/ml for 5 min
# Procedure: as §1
# HL-60 is a human promyelocytic leukaemia cell line. […]
# as §2
smiles,measurement,setting,value
"OCc1cc(-c2ncc(-c3cccc(O)c3O)o2)ccc1O [LMH036, 3-(2-(4-hydroxy-3-(hydroxymethyl)phenyl)oxazol-5-yl)benzene-1,2-diol]",O2.- production by human cells,[1],inhibitory effect
same,O2.- production by human cells,[2],inhibitory effect

# — US20150045387A1, “Bi-Aromatic And Tri-Aromatic Compounds As NADPH Oxidase 2 (Nox2) Inhibitors” (The University of Surrey, priority 2011, published 2015)
